In patent US20220169643A1, “ESTROGEN RECEPTOR DEGRADING PROTACS” (AstraZeneca AB, priority 2019, published 2022):

biological target: T1, Estrogen Receptor Alpha Ligand binding domain (ER alpha-LBD (GST)) (Homo sapiens, UniProt P03372); experiment: ERα Binding Assay (LanthaScreen TR-FRET competition); details: competitive displacement of Fluormone ES2 tracer from recombinant human ER alpha-LBD (residues 307-554), 4 hours at room temperature
T1 construct: made in house
T1 sequence (P03372 307-554): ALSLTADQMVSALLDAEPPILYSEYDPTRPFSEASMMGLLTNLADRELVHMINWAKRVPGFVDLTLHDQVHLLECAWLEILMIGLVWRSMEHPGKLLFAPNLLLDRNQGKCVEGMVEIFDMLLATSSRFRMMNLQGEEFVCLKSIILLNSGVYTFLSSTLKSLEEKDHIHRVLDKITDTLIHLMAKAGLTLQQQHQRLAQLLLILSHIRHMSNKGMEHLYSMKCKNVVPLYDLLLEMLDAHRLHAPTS
Procedure: The ability of compounds to bind to isolated Estrogen Receptor Alpha Ligand binding domain (ER alpha-LBD (GST)) was assessed in competition assays using a LanthaScreen™ Time-Resolved Fluorescence Resonance Energy Transfer (TR-FRET) detection end-point. For the LanthaScreen TR-FRET endpoint, a suitable fluorophore (Fluormone ES2, ThermoFisher, Product code P2645) and recombinant human Estrogen Receptor alpha ligand binding domain, residues 307-554 (expressed and purified in-house) were used to measure compound binding. The assay principle is that ER alpha-LBD (GST) is added to a fluorescent ligand to form a receptor/fluorophore complex. A terbium-labelled anti-GST antibody (Product code PV3551) is used to indirectly label the receptor by binding to its GST tag, and competitive binding is detected by a test compound's ability to displace the fluorescent ligand, resulting in a loss of TR-FRET signal between the Th-anti-GST antibody and the tracer. The assay was performed as follows with all reagent additions carried out using the Beckman Coulter BioRAPTR FRD microfluidic workstation: • 1. Acoustic dispense 120 nL of the test compound into a black low volume 384 well assay plates. • 2. Prepare 1×ER alpha-LBD/Tb-anti-GST Ab in ES2 screening buffer and incubate for 15 minutes. • 3. Dispense 6 μL of the 1×[…]/Th-anti-GST Ab reagent into each well of the assay plate followed by 6 μL of Fluorophore reagent into each well of the assay plate • 4. Cover the assay plate to protect the reagents from light and evaporation, and incubate at room temperature for 4 hours. • 5. Excite at 337 nm and measure the fluorescent emission signal of each well at 490 nm and 520 nm using the BMG PheraSTAR.
Compounds were dosed directly from a compound source microplate containing serially diluted compound (4 wells containing 10 mM, […] and 10 nM final compound respectively) to an assay microplate using the Labcyte Echo 550. The Echo 550 is a liquid handler that uses acoustic technology to perform direct microplate-to-microplate transfers of DMSO compound solutions and the system can be programmed to transfer multiple small nL volumes of compound from the different source plate wells to give the desired serial dilution of compound in the assay which is then back-filled to normalise the DMSO concentration across the dilution range.
In total 120 nL of compound plus DMSO were added to each well and compounds were tested in a 12-point concentration response format over a final compound concentration range of 10, 2.917, 1.042, 0.2083, 0.1, 0.0292, 0.0104, 0.002083, 0.001, 0.0002917, 0.0001042, and 0.00001 μM respectively. TR-FRET dose response data obtained with each compound was exported into a suitable software package (such as Origin or Genedata) to perform curve fitting analysis. Competitive ER alpha binding was expressed as an IC50 value. This was determined by calculation of the concentration of compound that was required to give a 50% reduction in tracer compound binding to ER alpha-LBD.

Row | SMILES | IC50 [nM]
1 | C[C@@H]1Cc2c([nH]c3ccccc23)[C@@H](c2cnc(N3CCC(CCCN4CCN(c5ccc6c(c5)CN(C5CCC(=O)NC5=O)C6=O)CC4)CC3)nc2)N1CC(F)(F)F (stereo partly drawn) [Example 34, 3-(5-{4-[3-(1-{5-[(1R,3R)-3-methyl-2-(2,2,2-trifluoroethyl)-2,3,4,9-tetrahydro-1H-beta-carbolin-1-yl]pyrimidin-2-yl}piperidin-4-yl)propyl]piperazin-1-yl}-1-oxo-1,3-dihydro-2H-isoindol-2-yl)piperidine-2,6-dione] | 7.3
2 | C[C@@H]1Cc2c([nH]c3ccccc23)[C@@H](c2cnc(N3CCC(CCN4CCN(c5ccc6c(c5)CN(C5CCC(=O)NC5=O)C6=O)CC4)CC3)nc2)N1CC(F)(F)F (stereo partly drawn) [Example 15, 3-(5-{4-[2-(1-{5-[(1R,3R)-3-methyl-2-(2,2,2-trifluoroethyl)-2,3,4,9-tetrahydro-1H-beta-carbolin-1-yl]pyrimidin-2-yl}piperidin-4-yl)ethyl]piperazin-1-yl}-1-oxo-1,3-dihydro-2H-isoindol-2-yl)piperidine-2,6-dione] | 3.7
3 | C[C@@H]1Cc2c([nH]c3ccccc23)[C@@H](c2cnc(N3CCC4(CCN(CCC5CCN(c6ccc7c(c6)CN(C6CCC(=O)NC6=O)C7=O)CC5)CC4)CC3)nc2)N1CC(C)(C)F (stereo partly drawn) [Example 10, 3-(5-{4-[2-(9-{5-[(1R,3R)-2-(2-fluoro-2-methylpropyl)-3-methyl-2,3,4,9-tetrahydro-1H-beta-carbolin-1-yl]pyrimidin-2-yl}-3,9-diazaspiro[5.5]undecan-3-yl)ethyl]piperidin-1-yl}-1-oxo-1,3-dihydro-2H-isoindol-2-yl)piperidine-2,6-dione] | 22.3
4 | C[C@@H]1Cc2c([nH]c3ccccc23)[C@@H](c2cnc(N3CCC4(CCN(CC5CCN(c6ccc7c(c6)CN(C6CCC(=O)NC6=O)C7=O)CC5)CCO4)CC3)nc2)N1CC(C)(C)F (stereo partly drawn) [Example 18, 3-(5-{4-[(3-{5-[(1R,3R)-2-(2-fluoro-2-methylpropyl)-3-methyl-2,3,4,9-tetrahydro-1H-beta-carbolin-1-yl]pyrimidin-2-yl}-7-oxa-3,10-diazaspiro[5.6]dodecan-10-yl)methyl]piperidin-1-yl}-1-oxo-1,3-dihydro-2H-isoindol-2-yl)piperidine-2,6-dione] | 9.5
5 | C[C@@H]1Cc2c([nH]c3ccccc23)[C@@H](c2cnc(N3CCC(CN4CCC5(CC4)CCN(c4ccc6c(c4)CN(C4CCC(=O)NC4=O)C6=O)CC5)CC3)nc2)N1CC(C)(C)F (mixture of isomers) [Example 7, 3-(5-{9-[(1-{5-[(1R,3R)-2-(2-fluoro-2-methylpropyl)-3-methyl-2,3,4,9-tetrahydro-1H-beta-carbolin-1-yl]pyrimidin-2-yl}piperidin-4-yl)methyl]-3,9-diazaspiro[5.5]undecan-3-yl}-1-oxo-1,3-dihydro-2H-isoindol-2-yl)piperidine-2,6-dione] | 4.7
6 | C[C@@H]1Cc2c([nH]c3ccccc23)[C@@H](c2cnc(N3CCC(CN4CCN(c5ccc6c(c5)CN(C5CCC(=O)NC5=O)C6=O)CC4)CC3)nc2)N1CC(C)(C)F (stereo partly drawn) [Example 1, 3-[5-[4-[[1-[5-[(1R,3R)-2-(2-Fluoro-2-methyl-propyl)-3-methyl-1,3,4,9-tetrahydropyrido[3,4-b]indol-1-yl]pyrimidin-2-yl]-4-piperidyl]methyl]piperazin-1-yl]-1-oxo-isoindolin-2-yl]piperidine-2,6-dione] | 3.1
7 | C[C@@H]1Cc2c([nH]c3ccccc23)[C@@H](c2cnc(N3CCC(CCCN4CCN(c5ccc6c(c5)CN(C5CCC(=O)NC5=O)C6=O)CC4)CC3)nc2)N1CC(C)(C)F (stereo partly drawn) [Example 8, 3-(5-{4-[3-(1-{5-[(1R,3R)-2-(2-fluoro-2-methylpropyl)-3-methyl-2,3,4,9-tetrahydro-1H-beta-carbolin-1-yl]pyrimidin-2-yl}piperidin-4-yl)propyl]piperazin-1-yl}-1-oxo-1,3-dihydro-2H-isoindol-2-yl)piperidine-2,6-dione] | 4.3
8 | C[C@@H]1Cc2c([nH]c3ccccc23)[C@@H](c2cnc(N3CCC(CCN4CCOC5(CC4)CCN(c4ccc6c(c4)CN(C4CCC(=O)NC4=O)C6=O)CC5)CC3)nc2)N1CC(C)(C)F (stereo partly drawn) [Example 20, 3-(5-{10-[2-(1-{5-[(1R,3R)-2-(2-fluoro-2-methylpropyl)-3-methyl-2,3,4,9-tetrahydro-1H-beta-carbolin-1-yl]pyrimidin-2-yl}piperidin-4-yl)ethyl]-7-oxa-3,10-diazaspiro[5.6]dodecan-3-yl}-1-oxo-1,3-dihydro-2H-isoindol-2-yl)piperidine-2,6-dione] | 2
9 | C[C@@H]1Cc2c([nH]c3ccccc23)[C@@H](c2cnc(N3CCC(CN4CCN(c5ccc6c(c5)CN(C5CCC(=O)NC5=O)C6=O)CC4)CC3)nc2)N1CC(F)(F)F (stereo partly drawn) [Example 35, 3-(5-{4-[(1-{5-[(1R,3R)-3-methyl-2-(2,2,2-trifluoroethyl)-2,3,4,9-tetrahydro-1H-beta-carbolin-1-yl]pyrimidin-2-yl}piperidin-4-yl)methyl]piperazin-1-yl}-1-oxo-1,3-dihydro-2H-isoindol-2-yl)piperidine-2,6-dione] | 6.9
10 | C[C@@H]1Cc2c([nH]c3ccccc23)[C@@H](c2cnc(N3CCC(CN4CCC(CN5CCN(c6ccc7c(c6)CN(C6CCC(=O)NC6=O)C7=O)CC5)CC4)CC3)nc2)N1CC(C)(C)F (stereo partly drawn) [Example 14, 3-{5-[4-({1-[(1-{5-[(1R,3R)-2-(2-fluoro-2-methylpropyl)-3-methyl-2,3,4,9-tetrahydro-1H-beta-carbolin-1-yl]pyrimidin-2-yl}piperidin-4-yl)methyl]piperidin-4-yl}methyl)piperazin-1-yl]-1-oxo-1,3-dihydro-2H-isoindol-2-yl}piperidine-2,6-dione] | 8.5
11 | C[C@@H]1Cc2c([nH]c3ccccc23)[C@@H](c2c(F)cc(OCCCCCN3CCN(c4ccc5c(c4)CN(C4CCC(=O)NC4=O)C5=O)CC3)cc2F)N1CC(C)(C)F (stereo partly drawn) [Example 5, 3-[5-[4-[5-[3,5-Difluoro-4-[(1R,3R)-2-(2-fluoro-2-methyl-propyl)-3-methyl-1,3,4,9-tetrahydropyrido[3,4-b]indol-1-yl]phenoxy]pentyl]piperazin-1-yl]-1-oxo-isoindolin-2-yl]piperidine-2,6-dione] | 3.7
12 | C[C@@H]1Cc2c([nH]c3ccccc23)[C@@H](c2cnc(OCCCCCN3CCN(c4ccc5c(c4)CN(C4CCC(=O)NC4=O)C5=O)CC3)nc2)N1CC(C)(C)F (stereo partly drawn) [Example 40, 3-(5-{4-[5-({5-[(1R,3R)-2-(2-fluoro-2-methylpropyl)-3-methyl-2,3,4,9-tetrahydro-1H-beta-carbolin-1-yl]pyrimidin-2-yl}oxy)pentyl]piperazin-1-yl}-1-oxo-1,3-dihydro-2H-isoindol-2-yl)piperidine-2,6-dione] | 7
13 | C[C@@H]1Cc2c([nH]c3ccccc23)[C@@H](c2cnc(N3CCC(CN4CCN(c5ccc6c(c5)C(=O)N(C5CCC(=O)NC5=O)C6=O)CC4)CC3)nc2)N1CC(C)(C)F (stereo partly drawn) [Example 3, 2-[2,6-Dioxo3-piperidyl]-5-[4-[[1-[5-[(1R,3R)-2-(2-fluoro-2-methyl-propyl)-3-methyl-1,3,4,9-tetrahydropyrido[3,4-b]indol-1-yl]pyrimidin-2-yl]-4-piperidyl]methyl]piperazin-1-yl]isoindoline-1,3-dione] | 3.7
14 | C[C@@H]1Cc2c([nH]c3ccccc23)[C@@H](c2cnc(N3CC(CCN4CCN(c5ccc6c(c5)CN(C5CCC(=O)NC5=O)C6=O)CC4)C3)nc2)N1CC(C)(C)F (stereo partly drawn) [Example 37, 3-(5-{4-[2-(1-{5-[(1R,3R)-2-(2-fluoro-2-methylpropyl)-3-methyl-2,3,4,9-tetrahydro-1H-beta-carbolin-1-yl]pyrimidin-2-yl}azetidin-3-yl)ethyl]piperazin-1-yl}-1-oxo-1,3-dihydro-2H-isoindol-2-yl)piperidine-2,6-dione] | 3.3
